Assay results: patent publication US20240082417A1, “PROTEIN-POLYMER DRUG CONJUGATES” (priority 2022, published 2024)
Non-standard residues stand in square brackets, D forms with d. Residues, ends and D or L forms follow the SMILES beside them. *: point of attachment. Dolaproine = CO[C@@H]([C@@H]1CCCN1)[C@@H](C)C(=O)O; Dil = CC[C@H](C)[C@H](NC)[C@@H](CC(=O)O)OC; NMe2Val = CC(C)[C@@H](C(=O)*)N(C)C; NH(3-hydroxypropyl) = OCCCN*

Experiments:
[1] = Tolerability of Auristatin F-hydroxypropylamide (MTD study); assay type: in vivo, mouse
Description: The vehicle control group received physiological saline.

[2] = target: 5T4 antigen on the cell surface (A431 cells and MDA-MB-231-5T4 OE cells) (human) (UniProt Q13641); test: flow cytometry (MFI) on 5T4-expressing cells at 5 µg/mL, anti-Fc-FITC detection
Sequence of UniProt Q13641 (Q13641 32-420): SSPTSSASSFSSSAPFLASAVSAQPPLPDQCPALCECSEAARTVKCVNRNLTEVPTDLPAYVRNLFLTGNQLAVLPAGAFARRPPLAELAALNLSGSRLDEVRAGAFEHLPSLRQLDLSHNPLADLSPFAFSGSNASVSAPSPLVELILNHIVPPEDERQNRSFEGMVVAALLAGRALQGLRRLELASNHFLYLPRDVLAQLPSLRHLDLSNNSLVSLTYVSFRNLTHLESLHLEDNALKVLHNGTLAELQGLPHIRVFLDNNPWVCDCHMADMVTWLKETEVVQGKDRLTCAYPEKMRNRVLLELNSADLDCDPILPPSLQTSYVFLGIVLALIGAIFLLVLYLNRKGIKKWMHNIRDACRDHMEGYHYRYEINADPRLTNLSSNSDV

fold less binding than the anti-5T4 scFvFc molecules [2] [fold] | Compound | Animals survived by the end of the study (Day 21) ([1]; single IV dose 3.2 mg/kg) | Tolerability ([1]; single IV dose 4.7 mg/kg)
 | CC[C@H](C)[C@@H]([C@@H](CC(=O)N1CCC[C@H]1[C@H](OC)[C@@H](C)C(=O)N[C@@H](Cc1ccccc1)C(=O)NCCCO)OC)N(C)C(=O)[C@@H](NC(=O)[C@H](C(C)C)N(C)C)C(C)C [AF-HPA, auristatin F hydroxypropyl amide] (NMe2Val-V[Dil][Dolaproine]F-{NH(3-hydroxypropyl)}) | 2 out of 6 | exceeded the maximum tolerated dose
200 | unrelated scFvFc fusion protein |  | 
